Legend:
IL-22 = assay: TH17 cytokine inhibition as measured by ELISA: IL-22; format: cell-based; conditions: 120 h; human TH17 cells, 5 days differentiation, ELISA of supernatant
Method: (§1) Peripheral blood mononuclear cells (PBMCs) were sourced from freshly prepared leukocyte enriched plasma (buffy coat) from healthy volunteers from which PBMCs were isolated by density gradient centrifugation using Ficoll-Paque™ PLUS (GE Healthcare). Naïve CD4+ T cells were isolated using the Naïve CD4+ T cell Isolation Kit II (Miltenyi Biotec) as per manufacturer's instructions. CD4+ T cells were plated at 5×10^4 cells/well in 96 well plates pre-coated with immobilized human (h)-αCD3 antibody (eBioscience) then differentiated to TH17 cells using h-αCD28, h-αIFNγ, h-αIL4, h-IL6, h-IL23, h-IL1β, h-TGFβ1 (eBioscience) and maintained in a cell culture incubator at 37° C. with 5% CO2 in TexMACS Medium (Miltenyi Biotec) supplemented with 1% Penicillin/Streptomycin (Lonza) over 5 days.
(§2) Human CD4+ T cells were differentiated to TH17 cells as described in the presence or absence of various concentrations of compounds in a final concentration of 0.1% DMSO in TexMACS medium. Supernatants were collected and stored at −20° C. until they were to be assayed for IL-17A, IL-17F, IL-17AF, IL-21 and/or IL-22 levels as determined by Ready-Set-Go ELISA kits (eBioscience) as per manufacturer's instructions. Endpoint absorbance was read at 450 nm and 570 nm according to manufacturer's instructions (eBioscience) using a microplate reader (Perkin Elmer). The percentage of cytokine inhibition was calculated with reference to DMSO treated cells and the IC50s were determined by GraphPad Prism software and presented in the table below.

RORγ LBD [1] = biological target: T1, RORγ LBD (Homo sapiens (Human), UniProt P51449); assay: TR-FRET co-activator D22 interaction with RORγ LBD; format: biochemical
T1 sequence (P51449 269-508): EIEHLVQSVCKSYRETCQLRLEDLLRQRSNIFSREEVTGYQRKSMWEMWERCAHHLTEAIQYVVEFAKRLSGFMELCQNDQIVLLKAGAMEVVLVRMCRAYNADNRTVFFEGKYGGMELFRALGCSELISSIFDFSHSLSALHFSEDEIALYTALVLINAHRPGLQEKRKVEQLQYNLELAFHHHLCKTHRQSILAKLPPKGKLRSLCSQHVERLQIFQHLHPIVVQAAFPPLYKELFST
Description: (§3) The Time-Resolved Fluorescence Resonance Energy Transfer (TR-FRET) assay kit (Life Technologies) was used to measure compound efficacy to disrupt or enhance ligand-mediated interaction of the co-activator and co-repressor peptides with the purified GST-tagged (i) RORγ LBD or (ii) […]. The RORγ LBD and RORα LBD each have a basal level of interaction with the co-activator D22 or co-repressor NCoR1-D2 in the absence of ligand, thus it is possible to identify compounds that inhibit or induce RORγ and/or RORα co-activator/co-repressor interactions, thus determining RORα, RORγ, or RORα/RORγ compound selectivity. The assay was performed as per manufacturer's instructions and TR-FRET was assessed 2 and 20 hours post-assay initiation. Compounds were identified to (i) have no impact on either co-activator displacement or […] from the assessed LBD (ii) promote co-activator displacement from the assessed LBD (iii) promote co-repressor recruitment to the assessed LBD or (iv) concurrently promote co-activator displacement from the assessed LBD and co-repressor recruitment to the assessed LBD.

TH17 cells = assay: TH17 cellular proliferation (Prestoblue); format: cell-based; conditions: Homo sapiens, 120 h; 3 μM compound, after 5 day TH17 differentiation, relative to DMSO treated TH17 cells; read-out: % change in TH17 cell number
Method: as §1
Cellular proliferation was assessed in the presence or absence of 3 μM compound using Prestoblue® Cell Viability Reagent (Life Technologies) as per manufacturer's instructions using absorbance as the output measured by a microplate reader (Perkin Elmer) after 30 minutes of incubation of cells and reagent. A standard curve developed by plotting varying cell numbers versus absorbance was used to assess differences in cellular proliferation between compound treated or untreated cells after the 5 day TH17 differentiation period.

IL-17A = assay: TH17 cytokine inhibition as measured by ELISA: IL-17A; format: cell-based; conditions: 120 h; human TH17 cells, 5 days differentiation, ELISA of supernatant
Method: as §1, §2

IL-17F = assay: TH17 cytokine inhibition as measured by ELISA: IL-17F; format: cell-based; conditions: 120 h; human TH17 cells, 5 days differentiation, ELISA of supernatant
Method: as §1, §2

RORγ LBD [2] = biological target: T1, RORγ LBD; assay: TR-FRET co-repressor NCoR1-D2 interaction with RORγ LBD; format: biochemical
Description: as §3

RORα LBD [3] = biological target: T2, RORα LBD (Homo sapiens (Human), UniProt P35398); assay: TR-FRET co-repressor NCoR1-D2 interaction with RORα LBD; format: biochemical
T2 sequence (P35398 272-510): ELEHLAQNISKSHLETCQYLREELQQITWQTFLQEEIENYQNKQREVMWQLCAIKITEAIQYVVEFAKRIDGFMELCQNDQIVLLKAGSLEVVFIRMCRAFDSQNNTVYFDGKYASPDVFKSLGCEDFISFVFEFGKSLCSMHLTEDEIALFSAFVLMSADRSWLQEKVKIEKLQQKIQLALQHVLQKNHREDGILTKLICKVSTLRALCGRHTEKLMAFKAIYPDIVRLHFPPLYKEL
Description: as §3

[4] = TH17 cell viability (Prestoblue); format: cell-based; parameters: concentration or dose not given beside the values; conditions: human; percentage of DMSO treated cells; read-out: % viability of compound treated TH17 cells
Method: as §1
Cells were assayed for viability in the presence or absence of compound using Prestoblue® Cell Viability Reagent (Life Technologies) as per manufacturer's instructions after 30 minutes incubation of TH17 cells with reagent. Absorbance was measured at 570 nm and 600 nm using a microplate reader (Perkin Elmer) and data were analyzed as per manufacturer's instructions. Cell viability was expressed as a percentage of DMSO treated cells.

RORα LBD [5] = biological target: T2, RORα LBD; assay: TR-FRET co-activator D22 interaction with RORα LBD; format: biochemical
Description: as §3

[6] = 2 hr, read-out: RORγ EC50 D22 co-activator displacement 2 hr
[7] = 20 hr, read-out: RORγ EC50 D22 co-activator displacement 20 hr
[8] = 2 hr, read-out: RORγ EC50 NCoR1-D2 co-repressor recruitment 2 hr
[9] = 20 hr, read-out: RORγ EC50 NCoR1-D2 co-repressor recruitment 20 hr
[10] = 2 hr, read-out: RORα EC50 NCoR1-D2 co-repressor recruitment 2 hr
[11] = 20 hr, read-out: RORα EC50 NCoR1-D2 co-repressor recruitment 20 hr
[12] = 2 hr, read-out: RORα EC50 D22 co-activator displacement 2 hr
[13] = 20 hr, read-out: RORα EC50 D22 co-activator displacement 20 hr
[14] = 2 hr, co-activator recruitment (π), read-out: RORγ EC50 D22 2 hr (demonstrates co-activator recruitment)
[15] = 2 hr, co-activator recruitment (π), read-out: RORα EC50 D22 2 hr (demonstrates co-activator recruitment)
[16] = 20 hr, co-activator recruitment (π), read-out: RORα EC50 D22 20 hr (demonstrates co-activator recruitment)

| Structure (SMILES) | IC50 (IL-22) | EC50 (RORγ LBD [1]; [6]) | EC50 (RORγ LBD [1]; [7]) | IC50 (IL-17A) | IC50 (IL-17F) | EC50 (RORγ LBD [2]; [8]) | EC50 (RORγ LBD [2]; [9]) | EC50 (RORα LBD [3]; [10]) | EC50 (RORα LBD [3]; [11]) | EC50 (RORα LBD [5]; [12]) | EC50 (RORα LBD [5]; [13]) | EC50 (RORγ LBD [1]; [14]) | EC50 (RORα LBD [5]; [15]) | EC50 (RORα LBD [5]; [16]) | EC50 (RORγ LBD [1]; 20 hr, co-activator recruitment (π), read-out: RORγ EC50 D22 20 hr (demonstrates co-activator recruitment)) | EC50 (RORα LBD [3]; 20 hr, co-repressor displacement (Ω), read-out: RORα EC50 NCoR1-D2 20 hr (demonstrates co-repressor displacement)) | inhibition at 3 µM (TH17 cells) | viability [4] |
| --- | --- | --- | --- | --- | --- | --- | --- | --- | --- | --- | --- | --- | --- | --- | --- | --- | --- | --- |
| CC(=O)Nc1ccc2c(c1)CCN2Cc1ccc(C(C)C)cc1 [Example 8, N-(1-(4-isopropylbenzyl)indolin-5-yl)acetamide] | < 10 µM | < 30 µM | < 30 µM | < 10 µM | < 10 µM | > 30 µM | > 30 µM | > 30 µM | > 30 µM | > 30 µM | > 30 µM |  |  |  |  |  | ≤ 50% | > 80% |
| CC(=O)Nc1ccc2c(c1)CCN2Cc1ccc(C2(O)CCC2)cc1 [Example 10, N-(1-(4-(1-hydroxycyclobutyl)benzyl)indolin-5-yl)acetamide] | < 10 µM | > 30 µM | > 30 µM | > 10 µM | > 10 µM | > 30 µM | > 30 µM | > 30 µM | > 30 µM | < 30 µM | < 30 µM |  |  |  |  |  |  | > 80% |
| CC(=O)Nc1ccc2c(c1)CCN2Cc1ccc(C(=O)N(C)C)cc1 [Example 13, 4-((5-acetamidoindolin-1-yl)methyl)-N,N-dimethylbenzamide] | > 10 µM | > 30 µM | > 30 µM | > 10 µM | > 10 µM | > 30 µM | > 30 µM | > 30 µM | > 30 µM | > 30 µM | > 30 µM |  |  |  |  |  | ≤ 50% | > 80% |
| CC(=O)Nc1ccc2c(c1)CCN2Cc1ccc(C(=O)N(C)c2ccccc2)cc1 [Example 14, 4-((5-acetamidoindolin-1-yl)methyl)-N-methyl-N-phenylbenzamide] | < 10 µM |  | > 30 µM | < 10 µM | < 10 µM | > 30 µM | > 30 µM | > 30 µM | > 30 µM | > 30 µM | > 30 µM | < 30 µM |  |  |  |  |  | > 80% |

Further lines, with some results ahead:

| IC50 (IL-22) | EC50 (RORγ LBD [1]; [6]) | EC50 (RORγ LBD [1]; [7]) | IC50 (IL-17A) | IC50 (IL-17F) | EC50 (RORγ LBD [2]; [8]) | EC50 (RORγ LBD [2]; [9]) | EC50 (RORα LBD [3]; [10]) | EC50 (RORα LBD [3]; [11]) | EC50 (RORα LBD [5]; [12]) | EC50 (RORα LBD [5]; [13]) | EC50 (RORγ LBD [1]; [14]) | EC50 (RORα LBD [5]; [15]) | EC50 (RORα LBD [5]; [16]) | EC50 (RORγ LBD [1]; 20 hr, co-activator recruitment (π), read-out: RORγ EC50 D22 20 hr (demonstrates co-activator recruitment)) | EC50 (RORα LBD [3]; 20 hr, co-repressor displacement (Ω), read-out: RORα EC50 NCoR1-D2 20 hr (demonstrates co-repressor displacement)) | Structure (SMILES) | inhibition at 3 µM (TH17 cells) | viability [4] |
| --- | --- | --- | --- | --- | --- | --- | --- | --- | --- | --- | --- | --- | --- | --- | --- | --- | --- | --- |
| < 10 µM | > 30 µM | < 30 µM | < 10 µM | < 10 µM | > 30 µM | > 30 µM | > 30 µM | > 30 µM | > 30 µM | > 30 µM |  |  |  |  |  | CC(=O)Nc1ccc2c(c1)CCN2Cc1ccc(C(F)(F)F)cc1 [Example 7, N-(1-(4-(trifluoromethyl)benzyl)indolin-5-yl)acetamide] | ≤ 50% | > 80% |
| < 10 µM | > 30 µM | > 30 µM | < 10 µM | < 10 µM | > 30 µM | > 30 µM | > 30 µM | > 30 µM | > 30 µM | > 30 µM |  |  |  |  |  | CC(=O)Nc1ccc2c(c1)CCN2Cc1ccc(-c2cc(C)n[nH]2)cc1 [Example 9, N-(1-(4-(3-methyl-1H-pyrazol-5-yl)benzyl)indolin-5-yl)acetamide] |  | > 80% |
| > 10 µM |  | > 30 µM | > 10 µM | > 10 µM | > 30 µM | > 30 µM | > 30 µM | > 30 µM |  |  | < 30 µM | < 30 µM | < 30 µM |  |  | CC(=O)Nc1ccc2c(c1)CCN2Cc1ccc(C(N)=O)cc1 [Example 11, 4-((5-acetamidoindolin-1-yl)methyl)benzamide] | ≤ 50% | > 80% |
| > 10 µM |  |  | > 10 µM | > 10 µM | > 30 µM | > 30 µM | > 30 µM |  |  |  | < 30 µM | < 30 µM | < 30 µM | < 30 µM | < 30 µM | CNC(=O)c1ccc(CN2CCc3cc(NC(C)=O)ccc32)cc1 [Example 12, 4-((5-acetamidoindolin-1-yl)methyl)-N-methylbenzamide] | ≤ 50% | > 80% |

Source: patent publication US9321750B2, “ROR modulators and their uses” (INNOV17 LLC, priority 2012, dated 2016)
